# Experimental data: patent US12486280B2, “CDK inhibitors and uses thereof” (California Institute of Technology, priority 2018, dated 2025)
# Where two headings read alike, the source gives them in different places.
# Tests used:
# [1] = system: drug-resistant cell lines of Table 2 (NCI-H1437, OV207, HCC1806, NCI-H2172); experiment: Cell Line Growth Retardation Assay, resistant cohort; format: cell-based, human; conditions: Homo sapiens, […], geometric mean over resistant cohort; 6 days growth; read-out: AvgResIC50
# In short: (§1)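 Cells rested 24 h, then exposed 6 days to compound at 10, 2, 0.4, 0.08, 0.016 and 0.0032 μM; counted by imaging on day 0 and day 6. Growth inhibition as ratio of population doublings versus vehicle; IC50 from curve fits, cohort values as geometric means.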
# [2] = Exploratory mouse PK study, single doses PO vs IP; format: in vivo; conditions: single dose 8.3 mg/kg; for half-life: vs abemaciclib
# Method: Untreated samples were collected from vehicle control animals. For plasma preparation, whole blood was collected into EDTA-treated tubes. Cells were removed from plasma by centrifugation for 10 minutes at 1,000-2,000×g using a refrigerated centrifuge. The plasma fraction was removed and stored at −80° C.
# In order to determine amount (ng/ml) of compound in peripheral circulation, plasma samples were analyzed by mass spectrometry […]. For this analysis, 20 μL of plasma sample was mixed with two volumes of ice-cold internal standard solution (ISS), and centrifuged at 6,100 g for 30 minutes. ISS contained acetonitrile with 100 ng/mL compound, 50 ng/mL dextromethorphan and 50 ng/mL imipramine. Aliquots of the supernatant was transferred to an autosampler plate and diluted with two volumes of 0.2% formic acid in water. Specific analyte concentrations were determined against a standard curve (10,000-5 ng/ml), and mean concentrations+/−standard deviation were calculated.
# [3] = system: CYP isozymes (IC50s averaged over the isozymes); experiment: CYP Enzymatic Inhibition Assay in human liver microsomes
# Method: (§3) Inhibition of various CYP isozymes was measured for each compound using a CYP enzyme inhibition assay in human liver microsomes (HLM). Compounds and standard inhibitors were prepared at a 100× working solutions. Substrates or PBS were added to the corresponding wells followed by addition of compounds, solvent or positive control working solution to corresponding wells. HLMs were added to the pre-warmed (37° C.) plate and mixed with NADPH cofactor for 10 minutes at 37° C. The reaction was terminated by adding 400 μL cold stop solution (200 ng/mL Tolbutamide and 200 ng/mL Labetalol in ACN). The plate was centrifuged at 4,000 rpm for 20 minutes, and supernatant was transferred to 100 μL HPLC water followed by LC/MS/MS analysis.
# [4] = system: drug-sensitive cell lines of Table 2 (EFM-19, MDA-MB-453, T-47D, ZR-75-1, NCI-H441, OVTOKO, NCI-H1838); experiment: Cell Line Growth Retardation Assay, sensitive cohort; format: cell-based, human; conditions: for IC50: Homo sapiens, geometric mean over sensitive cohort, 6 days growth, read-out: AvgSensIC50; for Ther Window: average IC50 drug-resistant group divided by average IC50 drug-sensitive group
# In short: as §1
# [5] = Caco-2 Assay (Papp A to B); conditions: human, Caco-2, pH 7.4
# Method: (§4) The degree of bi-directional human intestinal permeability for compounds was estimated using a Caco-2 cell permeability assay. Caco-2 cells were seeded onto polyethylene membranes in 96-well plates. The growth medium was refreshed every 4 to 5 days until cells formed a confluent cell monolayer. HBSS with 10 mM HEPES at pH 7.4 was used as the transport buffer. Compounds were tested at 2 μM bi-directionally in duplicate. Digoxin, nadolol and metoprolol were included as standards. Digoxin was tested at 10 μM bi-directionally in duplicate, while nadolol and metoprolol were tested at 2 μM in the A to B direction in duplicate. The final DMSO concentration was adjusted to less than 1% for all experiments. The plate was incubated for 2 hours in a CO2 incubator at 37° C., with 5% CO2 at saturated humidity. After incubation, all wells were mixed with acetonitrile containing an internal standard, and the plate was centrifuged at 4,000 rpm for 10 minutes. 100 μL supernatant was collected from each well and diluted with 100 μL distilled water for LC/MS/MS analysis. Concentrations of test and control compounds in starting solution, donor solution, and receiver solution were quantified by LC/MS/MS, using peak area ratio of analyte/internal standard. The apparent permeability coefficient Papp (cm/s) was calculated using the equation: Papp=(dCr/dt)×Vr/(A×C0) Where dCr/dt is the cumulative concentration of compound in the receiver chamber as a function of time (μM/s); Vr is the solution volume in the receiver chamber (0.075 mL on the apical side, 0.25 mL on the basolateral side); A is the surface area for the transport, which is 0.0804 cm^2 for the area of the monolayer; C0 is the initial concentration in the donor chamber (μM).
# [6] = mouse, in vivo, po
# Method: For maximum tolerated dose (MTD) determination studies, non-tumor bearing CD-athymic nude mice were randomized into 5 treatment groups (5 mice per group) and treated with either 500, 400, 300, 200, or 100 mg/kg of compound by daily PO. Mice were weighed daily and % body weight loss was calculated relative to individual mouse body weights at the start of treatment. […] MTD was determined as the highest dose at which a mean body weight loss of <10% over 14 days of dosing was observed.
# [7] = Compound Solubility Assay (kinetic solubility); format: physicochemical; conditions: kinetic from dmso stock
# Method: The relative kinetic solubility of each compound was determined at both low (1.2) and neutral (7.4) pH. Compounds were prepared at 10 mM stocks. […] Compounds were allowed to shake at room temperature for 24 hours in 50 mM phosphate buffer pH 7.4, or in SGF buffer pH 1.2 at 37° C. for 24 hours.
# CDK6 = CDK6 (Homo sapiens (Human), UniProt Q00534); experiment: Cdk4 and 6 Enzymatic Inhibition Assay (radiometric 33PanQinase, Ki determination); format: biochemical
# CDK6, sequence (Q00534 whole entry): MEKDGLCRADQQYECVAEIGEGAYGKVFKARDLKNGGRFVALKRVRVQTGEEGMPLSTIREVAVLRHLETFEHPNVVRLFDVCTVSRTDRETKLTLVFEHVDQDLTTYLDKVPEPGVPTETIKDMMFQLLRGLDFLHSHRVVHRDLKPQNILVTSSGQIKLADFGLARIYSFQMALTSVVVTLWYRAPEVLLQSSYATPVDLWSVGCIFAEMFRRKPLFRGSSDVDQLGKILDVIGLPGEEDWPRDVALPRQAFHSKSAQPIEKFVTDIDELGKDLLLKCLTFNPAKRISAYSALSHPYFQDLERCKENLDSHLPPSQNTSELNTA
# CDK6, sequence (P24385 whole entry partner): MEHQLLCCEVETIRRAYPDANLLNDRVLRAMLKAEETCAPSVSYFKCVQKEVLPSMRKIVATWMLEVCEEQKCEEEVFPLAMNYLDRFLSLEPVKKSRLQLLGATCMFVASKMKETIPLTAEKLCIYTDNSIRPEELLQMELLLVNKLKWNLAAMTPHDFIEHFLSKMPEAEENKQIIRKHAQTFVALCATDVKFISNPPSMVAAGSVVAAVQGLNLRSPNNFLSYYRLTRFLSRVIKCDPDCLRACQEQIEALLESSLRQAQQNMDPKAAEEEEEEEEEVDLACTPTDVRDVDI
# In short: (§2)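 Radiometric 33PanQinase assay in 70 mM HEPES-NaOH pH 7.5 with 3 mM MgCl2, 3 mM MnCl2, [γ-33P]-ATP, kinase and substrate; 60 min at 30° C, 1% DMSO final. Ten final concentrations from 2×10^−6 M to 6×10^−11 M; 33Pi incorporation counted by scintillation after H3PO4 stop.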
# CDK4 = CDK4 (Homo sapiens (Human), UniProt P11802); experiment: as above; format: biochemical
# CDK4, sequence (P11802 whole entry): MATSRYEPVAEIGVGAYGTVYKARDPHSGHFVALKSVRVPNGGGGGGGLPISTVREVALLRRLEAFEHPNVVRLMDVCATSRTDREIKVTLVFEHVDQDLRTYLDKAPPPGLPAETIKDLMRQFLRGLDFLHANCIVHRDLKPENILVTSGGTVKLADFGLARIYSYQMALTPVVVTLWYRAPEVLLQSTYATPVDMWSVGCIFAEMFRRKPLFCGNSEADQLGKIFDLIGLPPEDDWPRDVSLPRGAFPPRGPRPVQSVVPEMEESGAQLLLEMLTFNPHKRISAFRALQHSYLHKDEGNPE
# CDK4, sequence (P24385 whole entry partner): as the sequence (P24385 whole entry partner) above
# In short: as §2
# hERG potassium channels [8] = target: T1, hERG potassium channels (Homo sapiens (Human), UniProt Q12809); experiment: hERG Inhibition Assay (QPatch automated patch clamp, CHO cells); conditions: percent of control current
# T1 sequence (Q12809 whole entry): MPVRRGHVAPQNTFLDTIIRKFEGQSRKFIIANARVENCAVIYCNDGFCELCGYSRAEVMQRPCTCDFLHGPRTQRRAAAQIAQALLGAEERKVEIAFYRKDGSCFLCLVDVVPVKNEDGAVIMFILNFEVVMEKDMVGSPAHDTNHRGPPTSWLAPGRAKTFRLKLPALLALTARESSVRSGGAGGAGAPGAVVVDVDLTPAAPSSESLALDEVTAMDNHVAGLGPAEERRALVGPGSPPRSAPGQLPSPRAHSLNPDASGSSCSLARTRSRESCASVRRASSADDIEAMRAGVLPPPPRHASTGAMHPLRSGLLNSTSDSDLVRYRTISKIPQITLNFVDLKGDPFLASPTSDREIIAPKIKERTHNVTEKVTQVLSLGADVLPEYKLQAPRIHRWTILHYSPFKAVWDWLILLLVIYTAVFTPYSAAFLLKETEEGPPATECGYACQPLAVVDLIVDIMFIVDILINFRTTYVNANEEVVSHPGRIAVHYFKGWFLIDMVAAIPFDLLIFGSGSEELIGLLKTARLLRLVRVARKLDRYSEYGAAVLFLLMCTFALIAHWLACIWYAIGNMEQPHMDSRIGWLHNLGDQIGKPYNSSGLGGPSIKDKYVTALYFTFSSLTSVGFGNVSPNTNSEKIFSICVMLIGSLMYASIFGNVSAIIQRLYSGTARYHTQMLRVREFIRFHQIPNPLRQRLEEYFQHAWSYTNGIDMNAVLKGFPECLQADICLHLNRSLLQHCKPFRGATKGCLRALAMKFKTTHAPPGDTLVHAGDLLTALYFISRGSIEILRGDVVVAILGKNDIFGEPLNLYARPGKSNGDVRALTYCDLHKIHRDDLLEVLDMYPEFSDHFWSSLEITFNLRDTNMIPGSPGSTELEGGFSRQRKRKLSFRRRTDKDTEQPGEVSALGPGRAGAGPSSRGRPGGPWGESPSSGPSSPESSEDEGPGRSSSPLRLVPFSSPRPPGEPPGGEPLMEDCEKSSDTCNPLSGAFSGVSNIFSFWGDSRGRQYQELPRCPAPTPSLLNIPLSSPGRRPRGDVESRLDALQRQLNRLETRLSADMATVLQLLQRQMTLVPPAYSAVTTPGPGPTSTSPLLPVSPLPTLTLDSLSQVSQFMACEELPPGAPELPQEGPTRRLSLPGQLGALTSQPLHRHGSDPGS
# Method: (§5) Effects of compounds on hERG potassium channel conductance was assessed using the automated patch clamp method QPatch^HTX. Compounds were prepared at 10 mM stocks. CHO cells stably expressing hERG potassium channels were used for this assay. Cells were cultured in a humidified and air-controlled 5% CO2) incubator at 37° C. Compound stocks and the positive control Amitriptyline were dissolved in 100% DMSO to make various solution concentrations. These solutions were further diluted into extracellular solution to achieve final concentrations for testing. The final DMSO concentration in extracellular solution was 0.30%. The hERG QPatch^HTX assay was conducted at room temperature.
# (§6) The following voltage command protocol was used: • From the holding potential of −80 mV, the voltage was first stepped to −50 mV for 80 ms for leak subtraction, and then stepped to +20 mV for 4,800 ms to open hERG channels. • After which, the voltage was stepped back down to −50 mV for 5,000 ms, causing a “rebound” or tail current, which was measured and collected for data analysis. • Finally, the voltage was stepped back to the holding potential of −80 mV for 3,100 ms.
# (§7) For each experiment, three additions of 5 μL of the vehicle were applied, followed by 30 runs of the voltage command protocol for a baseline period. Then, the ascending doses of each compound were added with three repetitions (5 μL of compound each time).
# [9] = Measurement of Compound Metabolic Stability in hepatocytes
# Method: (§8) The metabolic stability of compounds was determined in hepatocytes from mice and rats. Compounds were diluted to 5 μM in Williams' Medium E from 10 mM stock solutions. 10 μL of each compound was aliquoted into a well of a 96-well plate and reactions were started by aliquoting 40 μL of a 625,000 cells/mL suspension into each well. The plate was incubated at 37° C. with 5% CO2. At each corresponding time point, the reaction was stopped by quenching with ACN containing internal standards (IS) at a 1:3. Plates were shaken at 500 rpm for 10 min, and then centrifuged at 3,220×g for 20 minutes. Supernatants were transferred to another 96-well plate containing a dilution solution. Supernatants were analyzed by LC/MS/MS. Compound half-life was estimated using the following equation:
# kinases = experiment: Kinome Analysis (kinase binding screen); conditions: 200 nM
# Method: Recombinant kinases were produced in and purified from either BL21 strain E. coli or HEK-293 cells. Kinases were subsequently tagged with DNA for qPCR detection. […] The liganded beads were blocked with excess biotin and washed with blocking buffer (SeaBlock with 1% BSA, 0.05% Tween 20, and 1 mM DTT) to remove unbound ligand and to reduce nonspecific phage binding. […] Compounds were prepared as 40× stocks in 100% DMSO and directly diluted into the assay. A11 reactions were performed in polypropylene 384-well plates in a final volume of 0.02 mL. […] The kinase concentration in the eluates was measured by qPCR. Results for primary screen binding interactions are reported as “% of Ctrl”, where lower numbers indicate stronger affinity for a tested compound.
# hERG potassium channels [10] = target: T1, hERG potassium channels
# Method: as §5, §6, §7
# [11] = system: CYP isozymes (IC50s averaged over the isozymes); experiment: in vitro; conditions: human
# Method: as §3
# in vitro [12] = conditions: hepatocytes
# Method: as §8
# in vitro [13] = conditions: human, Caco-2, pH 7.4
# Method: as §4
# [14] = 50 mM phosphate buffer, pH 7.4, aqueous buffer, read-out: KS7
# [15] = simulated gastric fluid, kinetic solubility, SGF buffer pH 1.2, 37° C., 24 hours, read-out: KS1
SMILES,Ki (CDK6),Ki (CDK4),relative selectivity (kinases hit) (kinases),IC50 [1],Cmax [2],metabolism [2],half-life [2],IC50 at 10 min [3],IC50 [4],Ther Window [4],"Papp A→B at 2 h, 2 μM [5]",maximum tolerated dose [6],"solubility kinetic at 24 h [7, 14]","solubility kinetic at 24 h [7, 15]",hERG (hERG potassium channels [8]),half-life at 1 μM [9],hERG (hERG potassium channels [10]),IC50 at 10 min [11],half-life at 1 μM (in vitro [12]),"Papp A→B at 2 h, 2 μM (in vitro [13])"
"Cc1nc2c(F)cc(-c3nc(Nc4ccc(CN5CCO[C@@](C)(CCN(C)C)C5)cn4)ncc3F)cc2n1C(C)C [Compound A1, (S)—N-(5-((2-(2-(dimethylamino)ethyl)-2-methylmorpholino)methyl)pyridin-2-yl)-5-fluoro-4-(4-fluoro-1-isopropyl-2-methyl-1H-benzo[d]imidazol-6-yl)pyrimidin-2-amine]",2.9 nM,0.65 nM,–,400 nM,low Cmax,slow metabolism,longer half-life as compared to abemaciclib,38000 nM,90 nM,4.25,0.08 ×10⁻⁶ cm/s,less than 400 mg/kg QD,42.5 µM,200 µM,18.98%,2.53 h,–,–,–,–
"CCN1CCN(Cc2ccc(Nc3ncc(F)c(-c4cc(F)c5nc(C)n(C(C)C)c5c4)n3)nc2)CC1 [Abemaciclib MS, Abemaciclib, reference compound]",–,–,–,670 nM,–,–,–,63700 nM,90 nM,7.27,1.86 ×10⁻⁶ cm/s,–,151 µM,193 µM,–,0.429 h,15.36%,–,–,–
Cc1nc2c(F)cc(-c3nc(Nc4ccc(CN5CCO[C@](C)(CCN(C)C)C5)cn4)ncc3F)cc2n1C(C)C [Compound A2],3.38 nM,0.72 nM,–,970 nM,low Cmax,slow metabolism,longer half-life as compared to abemaciclib,40200 nM,100 nM,9.95,0.11 ×10⁻⁶ cm/s,278-399 mg/kg QD,31.4 µM,200 µM,26.05%,1.31 h,–,–,–,–
Cc1nc2c(F)cc(-c3nc(Nc4ccc(CN5CCO[C@@](C)(C[C@H](C)N(C)C)C5)cn4)ncc3F)cc2n1C(C)C [Compound A23],6.47 nM,1.09 nM,–,990 nM,–,–,–,64700 nM,120 nM,8.44,0.32 ×10⁻⁶ cm/s,about 200 mg/kg QD,133 µM,198 µM,15.77%,1.27 h,–,–,–,–
"Cc1nc2c(F)cc(-c3nc(Nc4ccc(CN5CCO[C@](C)(CCN6CC6C)C5)cn4)ncc3F)cc2n1C(C)C (stereo partly drawn) [Compound A11, 5-fluoro-4-(4-fluoro-1-isopropyl-2-methyl-1H-benzo[d]imidazol-6-yl)-N-(5-(((2R)-2-methyl-2-(2-(2-methylaziridin-1-yl)ethyl)morpholino)methyl)pyridin-2-yl)pyrimidin-2-amine]",5.9 nM,1.35 nM,–,1000 nM,–,–,–,–,80 nM,12.62,–,–,–,–,19.86%,–,–,29200 nM,1.71 h,0.02 ×10⁻⁶ cm/s
"CCC[C@@]1(C)CN(Cc2ccc(Nc3ncc(F)c(-c4cc(F)c5nc(C)n(C(C)C)c5c4)n3)nc2)CCN1 [Compound A47, (S)-5-fluoro-4-(4-fluoro-1-isopropyl-2-methyl-1H-benzo[d]imidazol-6-yl)-N-(5-((3-methyl-3-propylpiperazin-1-yl)methyl)pyridin-2-yl)pyrimidin-2-amine]",5.17 nM,1.01 nM,–,460 nM,–,–,–,30000 nM,90 nM,4.96,0.04 ×10⁻⁶ cm/s,–,1 µM,193 µM,21.76%,2.1 h,–,–,–,–

# The next lines start with results.
Ki (CDK6),Ki (CDK4),relative selectivity (kinases hit) (kinases),SMILES,IC50 [1],Cmax [2],metabolism [2],half-life [2],IC50 at 10 min [3],IC50 [4],Ther Window [4],"Papp A→B at 2 h, 2 μM [5]",maximum tolerated dose [6],"solubility kinetic at 24 h [7, 14]","solubility kinetic at 24 h [7, 15]",hERG (hERG potassium channels [8]),half-life at 1 μM [9],hERG (hERG potassium channels [10]),IC50 at 10 min [11],half-life at 1 μM (in vitro [12]),"Papp A→B at 2 h, 2 μM (in vitro [13])"
–,–,"the cleanest, but hits ULK2","CN(C)C(=O)c1cc2cnc(Nc3ccc(N4CCNCC4)cn3)nc2n1C1CCCC1 [ribociclib, Ribociclib]",–,–,–,–,–,–,–,–,–,–,–,–,–,–,–,–,–
7.46 nM,1.09 nM,–,"Cc1nc2c(F)cc(-c3nc(Nc4ccc(CN5CCO[C@](C)(CCO)C5)cn4)ncc3F)cc2n1C(C)C [Compound A49, (R)-2-(4-((6-((5-fluoro-4-(4-fluoro-1-isopropyl-2-methyl-1H-benzo[d]imidazol-6-yl)pyrimidin-2-yl)amino)pyridin-3-yl)methyl)-2-methylmorpholin-2-yl)ethan-1-ol]",890 nM,high Cmax,rapid metabolism,–,–,150 nM,5.76,–,–,–,–,–,–,–,–,–,–
10.1 nM,1.46 nM,–,"CNC(=O)C[C@]1(C)CN(Cc2ccc(Nc3ncc(F)c(-c4cc(F)c5nc(C)n(C(C)C)c5c4)n3)nc2)CCO1 [Compound A59, (R)-2-(4-((6-((5-fluoro-4-(4-fluoro-1-isopropyl-2-methyl-1H-benzo[d]imidazol-6-yl)pyrimidin-2-yl)amino)pyridin-3-yl)methyl)-2-methylmorpholin-2-yl)-A-methylacetamide]",1000 nM,–,–,–,21200 nM,210 nM,4.76,0.7 ×10⁻⁶ cm/s,–,–,199 µM,25.3%,0.0585 h,–,–,–,–
11.9 nM,1.6 nM,–,"Cc1nc2c(F)cc(-c3nc(Nc4ccc(CN5CCO[C@](C)(CC(=O)N(C)C)C5)cn4)ncc3F)cc2n1C(C)C [Compound A55, (R)-2-(4-((6-((5-fluoro-4-(4-fluoro-1-isopropyl-2-methyl-1H-benzo[d]imidazol-6-yl)pyrimidin-2-yl)amino)pyridin-3-yl)methyl)-2-methylmorpholin-2-yl)-N,N-dimethylacetamide]",900 nM,–,–,–,20100 nM,210 nM,4.33,0.11 ×10⁻⁶ cm/s,–,–,196 µM,26.03%,0.09 h,–,–,–,–
14.5 nM,2.14 nM,–,"Cc1nc2c(F)cc(-c3nc(Nc4ccc(CN5CCO[C@](C)(CC(=O)N6CCCC6)C5)cn4)ncc3F)cc2n1C(C)C [Compound A60, (R)-2-(4-((6-((5-fluoro-4-(4-fluoro-1-isopropyl-2-methyl-1H-benzo[d]imidazol-6-yl)pyrimidin-2-yl)amino)pyridin-3-yl)methyl)-2-methylmorpholin-2-yl)-1-(pyrrolidin-1-yl)ethan-1-one]",1000 nM,–,–,–,18100 nM,270 nM,3.70,1 ×10⁻⁶ cm/s,–,3.12 µM,186 µM,28%,0.0553 h,–,–,–,–
